Source: US20260240842A1, “METHODS TO PREVENT THERAPY RESISTANCE IN MELANOMA VIA BLOCKING GENOMIC INSTABILITY” (THE REGENTS OF THE UNIVERSITY OF CALIFORNIA, priority 2022, published 2026)

System: HSR harboring BRAF in M249 cells
Assay: Metaphase DNA-FISH tracking emergence of BRAF HSR
Type: cell-based, human
Conditions: M249, day 31; DNA-PKi and/or PARPi given in combination with BRAFi+MEKi; FIG. 5G
Description: FIGS. 5A-5H. Resistance-driver ecDNAs and HSRs dynamically track with resistance and DNA-PKi prevents size-expansion of ecDNAs and CGRs early on MAPKi treatment. FIGS. 5A to 5C, Metaphase DNA-FISH of paired parental and acquired resistant BRAF^V600MUT (5A and 5B) or NRAS^Q61MUT (5C) cell lines without or with drug withdrawal showing ecDNA- or HSR-amplicons harboring BRAF, RAF1 or NRAS. Left, representative images; right, quantifications per cell. Ruler, 15 μm. P values (Unpaired two-tailed Student's t-test): *, p<0.05; **, p<0.01; ***, p<0.001. FIGS. 5D to 5F: Three- (upper) and six-(lower) day MTT assay of indicated cell lines treated with graded concentrations of BRAFi+MEKi (5D and 5E) or MEKi (5F). Cell viability was normalized to respective DMSO/vehicle group. Inner brackets, comparisons between acquired-resistant sub-lines without and with drug withdrawal. Outer brackets, comparisons between acquired-resistant sub-lines and their isogenic parental cell lines. […] FIG. 5G: Representative images (left) and quantification (right) of metaphase DNA-FISH showing HSR harboring BRAF in M249 cells treated with vehicle or BRAFi+MEKi, with or without NU7026 and/or ABT888 for 31 days. […] FIG. 5H: Average total genomic spans of treatment-specific ecDNAs+CGRs in M229 and M245 cell lines (background ecDNA+CGR spans detected in vehicle-treated cells were filtered). […]

Row | SMILES | BRAF HSRs early on treatment
1 | O=c1cc(N2CCOCC2)oc2c1ccc1ccccc12 [NU7026] | suppression
2 | C[C@]1(c2nc3c(C(N)=O)cccc3[nH]2)CCCN1 [ABT888, veliparib] | suppression
